{"source": "patent US20150119410A1", "about": "“BIOMARKERS OF RESPONSE TO NAE INHIBITORS” (MILLENNIUM PHARMACEUTICALS, INC., priority 2011, published 2015)", "test_in_all_cases": "Cell line panel 1 viability screen", "format_in_all_cases": "cell-based", "key": {"[1]": {"tested_on": "647-V", "settings": "647-V (urinary_tract)", "protocol": "(§1) To support clinical development and identify potential biomarkers of tumor sensitivity or resistance, two large cancer cell line panels (Panel 1, N=653 (McDermott et al. (2007) PNAS 104:19936-19941); Panel 2, N=240 (O'Day et al. (2010) Fourth AACR International Conference on Molecular Diagnostics in Cancer Therapeutic Development)) were treated with MLN4924 and cell viability data (IC50, EC50, and POC—Percentage of Control) were generated.\n(§2) Panel 1 (McDermott et al., supra). The cell lines were exposed to three MLN4924 concentrations (20 nM, 200 nM, and 2 μM) for 72 hours. Viability, i.e., cell number, was quantified by measuring fluorescence of a cell-permeant nucleic acid stain. Mean of triplicate values for each sample were taken and compared to DMSO control to calculate percentage of control. In the results, control or no activity value is given a value of about 1, sensitivity is indicated by a value less than 1, with 0 as death of the entire cell population and resistance indicated by a value greater than 1. A continuum of viability values was obtained for each concentration, so some values were selected as cut-offs for final determination of sensitivity or resistance. For example, median POC values of less than the median value of all POC's recorded in the panel (<0.34) indicated sensitivity, values of 0.34 to 0.75 indicated borderline sensitivity, values greater than the 3rd quartile of all POC's in the panel (>0.75) insensitivity or resistance. […] Final judgment of cell line as sensitive, insensitive or resistant was determined by its viability at 2 μM."}, "[2]": {"tested_on": "AN3CA", "settings": "AN3CA (Uterus)", "protocol": "as §1, §2"}, "[3]": {"tested_on": "AsPC-1", "settings": "AsPC-1 (Pancreas)", "protocol": "as §1, §2"}, "[4]": {"tested_on": "C-33a", "settings": "C-33a (Cervix)", "protocol": "as §1, §2"}, "[5]": {"tested_on": "C2BBe1", "settings": "Homo sapiens; C2BBe1 (intestine); 2 μM MLN4924, 72 hours; DMSO control about 1", "protocol": "as §1, §2"}, "[6]": {"tested_on": "COCM1", "protocol": "as §1, §2"}, "[7]": {"tested_on": "COLO-205", "protocol": "as §1, §2"}, "[8]": {"tested_on": "ESS-1", "settings": "ESS-1 (Uterus)", "protocol": "as §1, §2"}, "[9]": {"tested_on": "FADU", "settings": "FADU (upper aerodigestive tract)", "protocol": "as §1, §2"}, "[10]": {"tested_on": "HCC1806", "settings": "HCC1806 (breast)", "protocol": "as §1, §2"}, "[11]": {"tested_on": "HuCCT1", "settings": "HuCCT1 (Liver)", "protocol": "as §1, §2"}, "[12]": {"tested_on": "KYSE-450", "settings": "KYSE-450 (oesophagus)", "protocol": "as §1, §2"}, "[13]": {"tested_on": "LK-2", "settings": "Homo sapiens; LK-2 (lung); 2 μM MLN4924, 72 hours; DMSO control about 1", "protocol": "as §1, §2"}, "[14]": {"tested_on": "MKN28", "settings": "Homo sapiens, MKN-28; MKN28 (stomach); 2 μM MLN4924, 72 hours; DMSO control about 1", "protocol": "as §1, §2"}, "[15]": {"tested_on": "NCI-H2405", "settings": "NCI-H2405 (lung)", "protocol": "as §1, §2"}, "[16]": {"tested_on": "NCl-H1581", "settings": "NCl-H1581 (lung NSCLC); 2 μM MLN4924, 72 hours; DMSO control about 1", "protocol": "as §1, §2"}, "[17]": {"tested_on": "NCl-H520", "settings": "NCl-H520 (lung NSCLC); 2 μM MLN4924, 72 hours; DMSO control about 1", "protocol": "as §1, §2"}, "[18]": {"tested_on": "RCM-1", "protocol": "as §1, §2"}, "[19]": {"tested_on": "SW 1116", "settings": "Homo sapiens; SW 1116 (intestine); 2 μM MLN4924, 72 hours; DMSO control about 1", "protocol": "as §1, §2"}, "[20]": {"tested_on": "SW626", "settings": "Homo sapiens; SW626 (ovary); 2 μM MLN4924, 72 hours; DMSO control about 1", "protocol": "as §1, §2"}, "[21]": {"tested_on": "SW837", "settings": "Homo sapiens; SW837 (intestine); 2 μM MLN4924, 72 hours; DMSO control about 1", "protocol": "as §1, §2"}, "[22]": {"tested_on": "UMC-11", "settings": "UMC-11 (lung)", "protocol": "as §1, §2"}, "[23]": {"tested_on": "YAPC", "settings": "YAPC (pancreas)", "protocol": "as §1, §2"}, "[24]": {"settings": "Homo sapiens, 2 μM MLN4924, 72 hours, DMSO control about 1"}}}
{"smiles": "NS(=O)(=O)OC[C@@H]1C[C@@H](n2ccc3c(N[C@H]4CCc5ccccc54)ncnc32)C[C@@H]1O", "note": "[MLN4924, ((1S,2S,4R)-4-{4-[(1S)-2,3-dihydro-1H-inden-1-ylamino]-7H-pyrrolo[2,3-d]pyrimidin-7-yl}-2-hydroxycyclopentyl)methyl sulphamate]", "values": [{"measurement": "Phenotype", "setting": "[1]; NF2 mutant", "value": "sensitive (median POC values of less than the median value of all POC's recorded in the panel (<0.34) indicated sensitivity)"}, {"measurement": "viability at 2 µM", "setting": "[1]; [24]", "value": 3.8, "unit": "%"}, {"measurement": "Phenotype", "setting": "[2]; FBXW7 mutant", "value": "sensitive (median POC values of less than the median value of all POC's recorded in the panel (<0.34) indicated sensitivity)"}, {"measurement": "viability at 2 µM", "setting": "[2]; Homo sapiens, AN3-CA, 2 μM MLN4924, 72 hours, DMSO control about 1", "value": 19.4, "unit": "%"}, {"measurement": "Phenotype", "setting": "[3]; FBXW7 mutant", "value": "resistant (values greater than the 3rd quartile of all POC's in the panel (>0.75) insensitivity or resistance)"}, {"measurement": "viability at 2 µM", "setting": "[3]; Homo sapiens, ASPC1, 2 μM MLN4924, 72 hours, DMSO control about 1", "value": 98.9, "unit": "%"}, {"measurement": "Phenotype", "setting": "[4]; FBXW7 mutant", "value": "sensitive (median POC values of less than the median value of all POC's recorded in the panel (<0.34) indicated sensitivity)"}, {"measurement": "viability at 2 µM", "setting": "[4]; [24]", "value": 8.22, "unit": "%"}, {"measurement": "viability at 2 µM", "setting": "[5]", "value": 71.6, "unit": "%"}, {"measurement": "viability at 2 µM", "setting": "[6]; COCM1 / CoCM-1 (intestine), 2 μM MLN4924, 72 hours, DMSO control about 1", "value": 114, "unit": "%"}, {"measurement": "Phenotype", "setting": "[6]; CoCM-1 (large_intestine), SMAD4 mutant", "value": "resistant (values greater than the 3rd quartile of all POC's in the panel (>0.75) insensitivity or resistance)"}, {"measurement": "Phenotype", "setting": "[7]; COLO-205 (large_intestine), SMAD4 mutant", "value": "sensitive (median POC values of less than the median value of all POC's recorded in the panel (<0.34) indicated sensitivity)"}, {"measurement": "viability at 2 µM", "setting": "[7]; Homo sapiens, COLO-205 (intestine), 2 μM MLN4924, 72 hours, DMSO control about 1", "value": 14.4, "unit": "%"}, {"measurement": "Phenotype", "setting": "[8]; FBXW7 mutant", "value": "sensitive (median POC values of less than the median value of all POC's recorded in the panel (<0.34) indicated sensitivity)"}, {"measurement": "viability at 2 µM", "setting": "[8]; [24]", "value": 5.29, "unit": "%"}, {"measurement": "Phenotype", "setting": "[9]; SMAD4 mutant", "value": "sensitive (median POC values of less than the median value of all POC's recorded in the panel (<0.34) indicated sensitivity)"}, {"measurement": "viability at 2 µM", "setting": "[9]; [24]", "value": 7.3, "unit": "%"}, {"measurement": "Phenotype", "setting": "[10]; KDM6A mutant", "value": "sensitive (median POC values of less than the median value of all POC's recorded in the panel (<0.34) indicated sensitivity)"}, {"measurement": "viability at 2 µM", "setting": "[10]; [24]", "value": 1.16, "unit": "%"}, {"measurement": "viability at 2 µM", "setting": "[11]; Homo sapiens, HuCCT-1, 2 μM MLN4924, 72 hours, DMSO control about 1", "value": 12.6, "unit": "%"}, {"measurement": "Phenotype", "setting": "[11]; FBXW7 mutant", "value": "sensitive (median POC values of less than the median value of all POC's recorded in the panel (<0.34) indicated sensitivity)"}, {"measurement": "viability at 2 µM", "setting": "[12]; [24]", "value": 14.3, "unit": "%"}, {"measurement": "Phenotype", "setting": "[12]; KDM6A mutant", "value": "sensitive (median POC values of less than the median value of all POC's recorded in the panel (<0.34) indicated sensitivity)"}, {"measurement": "viability at 2 µM", "setting": "[13]", "value": 28.9, "unit": "%"}, {"measurement": "viability at 2 µM", "setting": "[14]", "value": 28.5, "unit": "%"}, {"measurement": "viability at 2 µM", "setting": "[15]; [24]", "value": 25.5, "unit": "%"}, {"measurement": "Phenotype", "setting": "[15]; SMAD4 mutant", "value": "sensitive (median POC values of less than the median value of all POC's recorded in the panel (<0.34) indicated sensitivity)"}, {"measurement": "viability at 2 µM", "setting": "[16]", "value": 73.7, "unit": "%"}, {"measurement": "viability at 2 µM", "setting": "[17]", "value": 55.8, "unit": "%"}, {"measurement": "viability at 2 µM", "setting": "[18]; Homo sapiens, RCM-1 (intestine), 2 μM MLN4924, 72 hours, DMSO control about 1", "value": 76.7, "unit": "%"}, {"measurement": "Phenotype", "setting": "[18]; RCM-1 (Intestine), FBXW7 mutant", "value": "resistant (values greater than the 3rd quartile of all POC's in the panel (>0.75) insensitivity or resistance)"}, {"measurement": "viability at 2 µM", "setting": "[19]", "value": 116, "unit": "%"}, {"measurement": "viability at 2 µM", "setting": "[20]", "value": 55.4, "unit": "%"}, {"measurement": "viability at 2 µM", "setting": "[21]", "value": 70.2, "unit": "%"}, {"measurement": "viability at 2 µM", "setting": "[22]; [24]", "value": 44.7, "unit": "%"}, {"measurement": "Phenotype", "setting": "[22]; SMAD4 mutant", "value": "insensitive (values of 0.34 to 0.75 indicated borderline sensitivity)"}, {"measurement": "viability at 2 µM", "setting": "[23]; [24]", "value": 18.7, "unit": "%"}, {"measurement": "Phenotype", "setting": "[23]; SMAD4 mutant", "value": "sensitive (median POC values of less than the median value of all POC's recorded in the panel (<0.34) indicated sensitivity)"}]}
